Reference: PubChem BioAssay (NCI)
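Step 1: Grow cells in 96-well plates. Step 2: Expose to compound for 48 hours at 5 concentrations. Step 3: Interpolate endpoints linearly; if unreached, use highest concentration. Abbreviation: GI50, concentration required for 50% inhibition of growth. At the TGI there is no net growth.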

Assays:
Assay in all cases: NCI tumour cell line growth inhibition, 48 h
[1] = system: IGROV1 ovarian
[2] = system: SK-OV-3 ovarian
[3] = system: K-562 leukemia
[4] = system: SF-295 CNS
[5] = system: SK-MEL-2 melanoma
[6] = system: HCT-15 colon
[7] = system: SK-MEL-5 melanoma
[8] = system: OVCAR-3 ovarian
[9] = system: HT29 colon
[10] = system: SF-539 CNS

Compound | GI50 [1] [µM] | TGI [1] [µM] | GI50 [2] [µM] | TGI [2] [µM] | GI50 [3] [µM] | TGI [3] [µM] | GI50 [4] [µM] | TGI [4] [µM] | GI50 [5] [µM] | TGI [5] [µM] | GI50 [6] [µM] | TGI [6] [µM] | GI50 [7] [µM] | TGI [7] [µM] | GI50 [8] [µM] | TGI [8] [µM] | GI50 [9] [µM] | TGI [9] [µM] | TGI [10] [µM] | GI50 [10] [µM]
C/C1=C\CC[C@@](C)(O)[C@@H]2CC3[C@@H](OC(=O)C34CC4)[C@@H](O2)[C@H](C)CCC1 (stereo partly drawn) | 6.48 | 24.1 | 55 | > 100 | 35.1 | > 100 | 17.3 | 34.4 | 16.2 | 34.4 | 23.7 | 58 | 10.6 | 30.7 | 20.1 | 39.6 | 28.9 | > 100 | – | –
O=C(O)c1c[nH]cc1C(=O)O | – | > 100 | – | > 100 | – | > 100 | – | > 100 | – | – | – | > 100 | – | > 100 | – | > 100 | – | > 100 | > 100 | –
COc1cc(Oc2c(O)c(C)c(OC)c(C(C)=O)c2O)c(C(C)=O)c(O)c1C | – | > 100 | – | > 100 | – | – | – | > 100 | – | – | – | > 100 | – | > 100 | – | > 100 | – | > 100 | > 100 | –
Cc1cn2c(/C=N/N/C(N)=N\N)c(-c3ccc(Cl)c([N+](=O)[O-])c3)nc2s1 | 3.55 | 37.8 | 1.29 | 2.78 | 2.17 | > 50 | 0.891 | 1.8 | 7.63 | 23.4 | 0.968 | 2.04 | 4.29 | 16.4 | 0.865 | 1.75 | – | – | 1.83 | 0.993
COc1ccc2c(c1)nc(N)c1c3cccnc3cn21 | 0.106 | 37.1 | 0.0508 | > 79.3 | 0.038 | 24.9 | 0.0365 | 1.13 | 0.843 | 24.2 | 0.0456 | 33.7 | 0.0322 | 0.836 | – | – | 0.0351 | 1.88 | 1.09 | 0.0432
CC(C)=CC(=O)CC(=O)C(=O)Nc1ccc(Cl)c(Cl)c1 | – | > 100 | – | > 100 | – | > 100 | – | > 100 | – | > 100 | – | > 100 | – | – | – | > 100 | – | > 100 | > 100 | –
O=C(Nc1ccc2c(c1)oc(=O)c1ccccc12)C(Cl)Cl | – | > 100 | – | – | – | > 100 | – | > 100 | – | > 100 | – | > 100 | – | > 100 | – | 73.8 | – | 97.8 | > 100 | –
C=C(C)[C@@H]1CC[C@@]2(C)[C@H]1[C@H]1CCC3[C@@]4(C)CC[C@H](O)C(C)(C)[C@@H]4CC[C@@]3(C)[C@]1(C)C[C@@H]2O (stereo partly drawn) | – | > 100 | – | – | – | 47.7 | – | 80.6 | – | – | – | > 100 | – | 57.2 | – | > 100 | – | > 100 | > 100 | –
O=C1c2ccccc2C(=O)C1C(c1ccc([N+](=O)[O-])cc1)C1C(=O)c2ccccc2C1=O | – | – | – | > 100 | – | > 100 | – | > 100 | – | > 100 | – | > 100 | – | > 100 | – | 34.1 | – | > 100 | > 100 | –
FC(F)(F)c1ccc2nc(Nc3ccc(Cl)c(Cl)c3)c(-c3ccccc3)nc2c1 | – | – | – | – | – | – | – | > 100 | – | > 100 | – | > 100 | – | – | – | > 100 | – | > 100 | > 100 | –
CCOC(=O)/C(C#N)=C1\N[C@H](C(=O)OCC)CO1 | – | > 100 | – | – | – | > 100 | – | > 100 | – | 62.6 | – | > 100 | – | > 100 | – | > 100 | – | > 100 | > 100 | –
CC(=O)C1=C([O-])C(C)OC1=O.CC(=O)C1=C([O-])C(C)OC1=O.[NH-]C1CCCC[C@H]1[NH-].[Pt+4] (stereo not drawn) | > 100 | > 100 | > 100 | > 100 | 61.2 | > 100 | > 100 | > 100 | > 100 | > 100 | 67.4 | > 100 | 57.5 | > 100 | > 100 | > 100 | 63.3 | > 100 | – | –
Oc1cc(Cl)ccc1Oc1ccc(Cl)cc1Cl | 4.73 | 17 | 2.97 | 7.86 | – | – | – | – | 2.41 | 5.01 | 3.31 | 10.9 | 1.75 | 3.59 | 5.21 | 17.2 | 3.27 | 10.2 | 7.74 | 2.58
COC1CC(n2cnc3c(N)ncnc32)OC1CO (stereo not drawn) | – | > 100 | – | – | – | > 100 | – | > 100 | – | > 100 | – | > 100 | – | > 100 | – | > 100 | – | > 100 | > 100 | –
CCC1CN2CCc3cc(OC)c(OC)cc3C2CC1CC1c2cc(OC)c(OC)cc2CCN1C(=O)CNC(=O)OC(C)(C)C (stereo not drawn) | – | 74.6 | – | 64.7 | – | 14.9 | – | 34.4 | – | 33.1 | – | 68.7 | – | 21 | – | 61.7 | – | > 100 | – | –
CC1=CC(=O)C(C(C)=Nc2ccccc2Cl)C(=O)O1 (stereo not drawn) | 76.2 | > 100 | > 100 | > 100 | > 100 | > 100 | > 100 | > 100 | – | – | > 100 | > 100 | > 100 | > 100 | > 100 | > 100 | > 100 | > 100 | > 100 | > 100
CC(=O)c1cccc(NCn2nnc3ccccc32)c1 | – | > 100 | – | > 100 | – | > 100 | – | > 100 | – | > 100 | – | > 100 | – | – | – | > 100 | – | > 100 | > 100 | –
Cc1cccc(C)c1NC(=O)CCCC(=O)C1CCC/C1=N\NC(=O)C(=O)NN (stereo not drawn) | – | – | – | > 100 | – | > 100 | – | > 100 | – | > 100 | – | > 100 | – | > 100 | – | > 100 | – | > 100 | > 100 | –
COc1ccc(COCC(Cn2ccnc2)OCc2ccc(C(=O)O)cc2)cc1 (stereo not drawn) | – | > 100 | – | > 100 | – | > 100 | – | > 100 | – | > 100 | – | > 100 | – | > 100 | – | – | – | > 100 | > 100 | –
